We go through seven compounds from patent US9273058B2 (BRISTOL-MYERS SQUIBB COMPANY, priority 2013, dated 2016).

Read-outs that look alike come from different tables or passages of the source.

The target of assay [1] is CK1δ (Homo sapiens, UniProt P48730). The assay is described as follows: CK1δ kinase assay (Caliper LabChip electrophoretic separation of fluoresceinated peptide substrate and product). The class given is biochemical. Particulars: 200 pM CK1δ, 50 μM ATP, 1.5 μM peptide, 22 hours at room temperature; read-out: CK1δ IC50 range. In short, it runs like this: (§1)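 Compounds, taken from 10 mM DMSO stocks, are titrated at eleven concentrations. Kinase reactions proceed for 22 hours at room temperature and are quenched with EDTA. Substrate and product are resolved electrophoretically, and IC50 values are fitted by non-linear regression.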
Chain of CK1δ (P48730 whole entry): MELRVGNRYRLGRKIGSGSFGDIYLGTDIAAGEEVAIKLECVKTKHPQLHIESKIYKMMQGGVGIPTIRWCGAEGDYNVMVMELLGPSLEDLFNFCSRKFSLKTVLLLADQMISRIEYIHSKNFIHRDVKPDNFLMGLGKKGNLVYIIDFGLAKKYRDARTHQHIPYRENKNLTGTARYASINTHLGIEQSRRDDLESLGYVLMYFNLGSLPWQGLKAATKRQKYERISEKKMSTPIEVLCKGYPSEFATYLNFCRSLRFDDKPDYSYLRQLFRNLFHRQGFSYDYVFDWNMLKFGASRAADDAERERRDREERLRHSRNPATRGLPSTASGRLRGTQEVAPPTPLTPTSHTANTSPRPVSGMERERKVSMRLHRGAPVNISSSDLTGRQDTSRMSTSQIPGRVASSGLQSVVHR

The target in assay [2] is CK1ε (Homo sapiens, UniProt P49674). The assay can be described thus: CK1ε kinase assay (Caliper LabChip electrophoretic separation of fluoresceinated peptide substrate and product). In kind it is biochemical. Particulars: 200 pM CK1ε, 50 μM ATP, 1.5 μM peptide, 22 hours at room temperature; read-out: CK1ε IC50 range. In outline:
as §1

The subject of assay [3] is pancreatic tumor cell. As to conditions: in vivo; Brockschmidt et al., Gut 2008; cited from earlier work.
The subject of assay [4] is pancreatic tumor cell. As to conditions: in vitro; Brockschmidt et al., Gut 2008; cited from earlier work.

Chain of CK1ε (P49674 whole entry): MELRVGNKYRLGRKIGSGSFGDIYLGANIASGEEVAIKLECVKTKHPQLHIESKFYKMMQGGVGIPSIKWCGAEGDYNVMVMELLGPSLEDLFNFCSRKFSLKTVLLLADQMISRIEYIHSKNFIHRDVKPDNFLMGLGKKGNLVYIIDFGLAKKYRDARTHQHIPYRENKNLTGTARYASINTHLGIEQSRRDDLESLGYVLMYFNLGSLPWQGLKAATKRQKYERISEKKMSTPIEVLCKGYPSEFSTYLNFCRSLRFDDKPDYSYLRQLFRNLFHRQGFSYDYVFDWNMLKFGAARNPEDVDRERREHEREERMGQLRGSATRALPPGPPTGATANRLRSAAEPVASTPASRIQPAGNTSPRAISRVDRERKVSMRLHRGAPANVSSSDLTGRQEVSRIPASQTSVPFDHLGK

On to `NC(=O)c1c(-c2ccc(F)c(Cl)c2)nn2c1CN(C(=O)NC13CCC(C(F)F)(CC1)C3)CC2` [Compound A139, 2-(3-Chloro-4-fluorophenyl)-N^5-(4-(difluoromethyl)bicyclo[2.2.1]heptan-1-yl)-6,7-dihydropyrazolo[1,5-a]pyrazine-3,5(4H)-dicarboxamide], for which the half-maximal inhibitory concentration (IC50) in assay [1] and in assay [2] was 0.01 to 10 nM throughout.

With `N#CC12CCC(NC(=O)N3CCn4nc(-c5ccc(F)c(Cl)c5)c(C(N)=O)c4C3)(CC1)C2` [Compound A140, 2-(3-Chloro-4-fluorophenyl)-N^5-(4-cyanobicyclo[2.2.1]heptan-1-yl)-6,7-dihydropyrazolo[1,5-a]pyrazine-3,5(4H)-dicarboxamide], the 50% inhibitory concentration (IC50) in assay [1] and in assay [2] was 0.01 to 10 nM each time.

Take `COc1cc(OC)c(C=C2C(O)=Nc3ccccc32)c(OC)c1` [IC261]: the “pancreatic tumor cell growth” value in assay [3] and in assay [4] was “reduces pancreatic tumor cell growth” each time.

Regarding `NC(=O)c1c(-c2ccc(Cl)c(Cl)c2)nn2c1CN(C(=O)N[C@H]1C[C@H](OC(F)(F)F)C1)CC2` [compound 265], the concentration for half-maximal inhibition (IC50) in assay [1] and in assay [2] was 0.01 to 10 nM in each case.

Regarding `NC(=O)c1c(-c2ccc(Cl)c(Cl)c2)nn2c1CN(C(=O)NC1(CF)CC(F)(F)C1)CC2` [compound 303], the concentration for half-maximal inhibition (IC50) in assay [1] and in assay [2] was 0.01 to 10 nM in each case.

Regarding `N#CC1(NC(=O)N2CCn3nc(-c4ccc(Cl)c(Cl)c4)c(C(N)=O)c3C2)CCOC1` (centres unmarked) [compound 335], the IC50 in assay [1] and in assay [2] was 0.01 to 10 nM in each case.

On to “N^5-(tert-Butyl)-2-(3-chloro-4-fluorophenyl)-7-(2-cyanoethyl)-6,7-dihydropyrazolo[1,5-a]pyrazine-3,5(4H)-dicarboxamide [Compound A104]”, for which the IC50 in assay [1] and in assay [2] was 0.01 to 10 nM in each case.

What is called IC50 is the concentration needed to halve the response being measured.
